Earlier results as cited in patent EP0731703B1, “LIPOSOMAL FORMULATIONS CONTAINING VIDARABINE OR ITS DERIVATIVES” (INSTITUTO NACIONAL DE ENGENHARIA E TECNOLOGIA …, priority 1993, dated 1995).

Details: literature (Schabel 1968; LePage et al. 1972)

aqueous solubility	SMILES
poor aqueous solubility	Nc1ncnc2c1ncn2[C@@H]1O[C@H](CO)[C@@H](O)[C@@H]1O [ARA-A, 9-β-D-arabinofuranosyladenine]
water-soluble	Nc1ncnc2c1ncn2[C@@H]1O[C@H](COP(=O)(O)O)[C@@H](O)[C@@H]1O [ARA-AMP, 9-β-D--arabinofuranosyladenine monophosphate]
